Test results reported in patent publication US20260083851A1 (AVILAR THERAPEUTICS, INC., priority 2022, published 2026).
Positions of bridges follow the written chain, without caps; N, C: chain ends. Non-standard residues stand in square brackets, D forms with d. Residues, ends and D or L forms follow the SMILES beside them. ξ: configuration not given here. Pro(4S-NH2) = N[C@@H]1CN[C@H](C(=O)O)C1; ξPro(4-NH2) = NC1CNC(C(=O)O)C1

What follows are molecules tested against T1, ASGP receptor (biotinylated ASGPR) (Homo sapiens, UniProt P07306) (assay: not given). Settings: SPR, Biacore 8K, 25° C.; Table 1A; read-out: ASGPR KD.
T1 construct: biotin (biotinylated)
T1 sequence (P07306 1-291): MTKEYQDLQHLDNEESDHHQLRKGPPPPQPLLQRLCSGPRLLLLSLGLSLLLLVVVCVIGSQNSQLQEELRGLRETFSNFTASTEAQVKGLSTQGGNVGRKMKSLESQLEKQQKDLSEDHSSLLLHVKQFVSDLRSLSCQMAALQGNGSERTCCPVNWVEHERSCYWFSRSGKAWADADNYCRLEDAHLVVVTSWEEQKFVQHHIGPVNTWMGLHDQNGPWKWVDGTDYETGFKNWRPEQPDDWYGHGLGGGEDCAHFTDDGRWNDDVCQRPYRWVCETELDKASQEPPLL
Assay type: binding

| Kd [µM] | Structure (SMILES) |
| --- | --- |
| < 10 | O=C(NC[C@H]1OC[C@H](Nc2cncc(C(F)(F)F)n2)[C@@H](O)[C@H]1O)c1ccc2c(n1)CCCN2 [A88, N-(((2R,3R,4R,5S)-3,4-dihydroxy-5-((6-(trifluoromethyl)pyrazin-2-yl)amino)tetrahydro-2H-pyran-2-yl)methyl)-5,6,7,8-tetrahydro-1,5-naphthyridine-2-carboxamide] |
| < 10 | O=C(NC[C@H]1OC[C@H](Nc2cncc(C(F)(F)F)n2)[C@@H](O)[C@H]1O)c1ncc2cc[nH]c2n1 [A78, N-(((2R,3R,4R,5S)-3,4-dihydroxy-5-((6-(trifluoromethyl)pyrazin-2-yl)amino)tetrahydro-2H-pyran-2-yl)methyl)-7H-pyrrolo[2,3-d]pyrimidine-2-carboxamide] |
| 10 to 100 | OC[C@H]1CC[C@H](Nc2nccc(C(F)(F)F)n2)[C@@H](O)[C@H]1O [A54, (1R,2S,3R,6S)-3-(hydroxymethyl)-6-((4-(trifluoromethyl)pyrimidin-2-yl)amino)cyclohexane-1,2-diol] |
| < 10 | CC(=O)N1C[C@H](Nc2cncc(C(F)(F)F)n2)[C@@H](O)[C@@H](O)C1 [A102, 1-((3S,4R,5S)-3,4-dihydroxy-5-((6-(trifluoromethyl)pyrazin-2-yl)amino)piperidin-1-yl)ethan-1-one] |
| < 10 | CC(=O)N[C@@H]1[C@@H](O)[C@@H](O)[C@@H](CO)O[C@@H]1c1ccccc1 [A95, N-((2R,3R,4R,5R,6R)-4,5-dihydroxy-6-(hydroxymethyl)-2-phenyltetrahydro-2H-pyran-3-yl)acetamide] |
| < 10 | OC[C@H]1O[C@@H](c2ccccc2)[C@H](Nc2nccc(C(F)(F)F)n2)[C@@H](O)[C@H]1O [A94, (2R,3R,4R,5R,6S)-2-(hydroxymethyl)-6-phenyl-5-((4-(trifluoromethyl)pyrimidin-2-yl)amino)tetrahydro-2H-pyran-3,4-diol] |

Same assay, conditions: SPR, Biacore 8K, 25° C.; Table 1C; read-out: ASGPR KD

| Kd [µM] | Structure (SMILES) |
| --- | --- |
| < 10 | O[C@@H]1[C@H](O)[C@@H](Nc2cncc(C(F)(F)F)n2)CO[C@@H]1COc1ccc(-c2ccccc2)cc1 [A202, (2R,3R,4R,5S)-2-(([1,1′-biphenyl]-4-yloxy)methyl)-5-((6-(trifluoromethyl)pyrazin-2-yl)amino)tetrahydro-2H-pyran-3,4-diol] |
| < 10 | C[C@H]1O[C@H](c2cc[nH]n2)[C@H](Oc2cccc(C(F)(F)F)n2)[C@@H](O)[C@H]1O [A332] |
| < 10 | CN1CC2CN(C[C@H]3OC[C@H](Oc4cccc(C(F)(F)F)n4)[C@@H](O)[C@H]3O)CCN2C1=O (stereo partly drawn) [A302] |
| < 10 | O[C@@H]1[C@H](O)[C@@H](Oc2cccc(C(F)(F)F)n2)CO[C@@H]1CN1CCN(c2cccnc2)CC1 [A275] |
| < 10 | C[C@H]1O[C@H](C#CCOc2cccnn2)[C@H](Oc2cccc(C(F)(F)F)n2)[C@@H](O)[C@H]1O [A319] |

Same assay, conditions: SPR, Biacore 8K, 25° C.; Table 1D; read-out: ASGPR KD

| Kd [µM] | Structure (SMILES) |
| --- | --- |
| < 10 | Cc1nnc(N2C[C@H](Oc3cccc(C(F)(F)F)n3)[C@@H](O)[C@@H](O)C2)o1 [A352] |
| < 10 | O[C@@H]1[C@@H](Nc2cncc(C(F)(F)F)n2)CN(c2ccc(C(F)(F)F)cn2)C[C@@H]1O [A377] |

Same assay, conditions: SPR, Biacore 8K, 25° C.; Table 1E; read-out: ASGPR KD

| Kd [µM] | Structure (SMILES) |
| --- | --- |
| < 10 | C[C@H]1O[C@H](c2nnc(-c3ccccc3)o2)[C@H](Oc2cccc(C(F)(F)F)n2)[C@@H](O)[C@H]1O [A448] |

The molecules below were run against IgG (assay: IgG SPR binding). Settings: second table, read-out: IgG KD.

| Kd [µM] | Structure (SMILES) |
| --- | --- |
| < 0.1 | CC(C)C[C@@H]1NC(=O)[C@H](C)NC(=O)CNC(=O)[C@H](CC(C)C)NC(=O)[C@H](Cc2cnc[nH]2)NC(=O)[C@H](Cc2c[nH]c3ccccc23)NC(=O)[C@H](C)NC(=O)[C@@H]2CSSC[C@H](NC(=O)[C@H](Cc3c[nH]c4ccccc34)NC(=O)[C@H](C(C)C)NC1=O)C(=O)N[C@@H]([C@@H](C)O)C(=O)N1CCC[C@@H]1C(=O)N1C[C@@H](N)C[C@H]1C(=O)N[C@@H](C)C(=O)N2 [compound 67] (cyclo(ACAWHLGALVWCT[dP][Pro(4S-NH2)]); disulfide 2-12) |
| < 0.1 | C#CCCCC(=O)NC1CC2C(=O)NC(CC(=O)O)C(=O)NC3CSSCC(NC(=O)C(Cc4c[nH]c5ccccc45)NC(=O)C(C(C)C)NC(=O)C(CC(C)C)NC(=O)C(CCC(=O)O)NC(=O)CNC(=O)C(CC(C)C)NC(=O)C(Cc4cnc[nH]4)NC(=O)C(Cc4c[nH]c5ccccc45)NC(=O)C(C)NC3=O)C(=O)NC(C(C)O)C(=O)N3CCCC3C(=O)N2C1 (stereo not drawn) [compound 75] |
| < 0.1 | CC(C)CC1NC(=O)C(Cc2cnc[nH]2)NC(=O)C(Cc2c[nH]c3ccccc23)NC(=O)C(C)NC(=O)C2CSSCC(NC(=O)C(Cc3c[nH]c4ccccc34)NC(=O)C(C(C)C)NC(=O)C(CC(C)C)NC(=O)C(CCC(N)=O)NC(=O)CNC1=O)C(=O)NC(C(C)O)C(=O)N1CCCC1C(=O)N1CC(N)CC1C(=O)NC(CC(=O)O)C(=O)N2 (stereo not drawn) [compound 60] (cyclo(GQLVWCTP[ξPro(4-NH2)]DCAWHL); disulfide 6-11; configuration not given here) |
| < 0.1 | CC(C)CC1NC(=O)C(Cc2cnc[nH]2)NC(=O)C(Cc2c[nH]c3ccccc23)NC(=O)C(C)NC(=O)C2CSSCC(NC(=O)C(Cc3c[nH]c4ccc(Cl)cc34)NC(=O)C(C(C)C)NC(=O)C(CC(C)C)NC(=O)C(CCC(=O)O)NC(=O)CNC1=O)C(=O)NC(C(C)O)C(=O)N1CCCC1C(=O)N1CC(N)CC1C(=O)NC(CC(=O)O)C(=O)N2 (stereo not drawn) [compound 62] |
| < 0.1 | CC(C)C[C@@H]1NC(=O)[C@H](Cc2cnc[nH]2)NC(=O)[C@H](Cc2c[nH]c3ccccc23)NC(=O)[C@H](C)NC(=O)[C@@H]2CSSC[C@H](NC(=O)[C@H](Cc3c[nH]c4ccccc34)NC(=O)[C@H](C(C)C)NC(=O)[C@H](CC(C)C)NC(=O)[C@H](CCC(=O)N(C)C)NC(=O)CNC1=O)C(=O)N[C@@H]([C@@H](C)O)C(=O)N1CCC[C@@H]1C(=O)N1C[C@@H](N)C[C@H]1C(=O)N[C@@H](CC(=O)O)C(=O)N2 [compound 65] |
| < 0.1 | CC(C)C[C@@H]1NC(=O)[C@H](C)NC(=O)CNC(=O)[C@H](CC(C)C)NC(=O)[C@H](Cc2cnc[nH]2)NC(=O)[C@H](Cc2c[nH]c3ccccc23)NC(=O)[C@H](C)NC(=O)[C@@H]2CSSC[C@H](NC(=O)[C@H](Cc3c[nH]c4ccccc34)NC(=O)[C@H](C(C)C)NC1=O)C(=O)N[C@@H]([C@@H](C)O)C(=O)N1CCC[C@@H]1C(=O)N1C[C@@H](N)C[C@H]1C(=O)N[C@@H](CC(N)=O)C(=O)N2 [compound 70] (cyclo(ALVWCT[dP][Pro(4S-NH2)]NCAWHLG); disulfide 5-10) |
| < 0.1 | CC(C)CC1NC(=O)C(Cc2cnc[nH]2)NC(=O)C(Cc2c[nH]c3ccccc23)NC(=O)C(C)NC(=O)C2CSSCC(NC(=O)C(Cc3c[nH]c4ccccc34)NC(=O)C(C(C)C)NC(=O)C(CC(C)C)NC(=O)C(CCC(=O)O)NC(=O)CNC1=O)C(=O)NC(C(C)O)C(=O)N1CCCC1C(=O)N1CC(N)CC1C(=O)NC(CC(=O)O)C(=O)N2 (stereo not drawn) [compound 66] |
| < 0.1 | CC(C)CC1NC(=O)C(C)NC(=O)CNC(=O)C(CC(C)C)NC(=O)C(Cc2cnc[nH]2)NC(=O)C(Cc2c[nH]c3ccccc23)NC(=O)C(C)NC(=O)C2CSSCC(NC(=O)C(Cc3c[nH]c4ccccc34)NC(=O)C(C(C)C)NC1=O)C(=O)NC(C(C)O)C(=O)N1CCCC1C(=O)N1CC(N)CC1C(=O)NC(CC(=O)O)C(=O)N2 (stereo not drawn) [compound 59] (cyclo(GALVWCTP[ξPro(4-NH2)]DCAWHL); disulfide 6-11; configuration not given here) |
| < 0.1 | CC(C)CC1NC(=O)C(Cc2cnc[nH]2)NC(=O)C(Cc2c[nH]c3ccccc23)NC(=O)C(C)NC(=O)C2CSSCC(NC(=O)C(Cc3c[nH]c4ccccc34)NC(=O)C(C(C)C)NC(=O)C(CC(C)C)NC(=O)C(CCC(=O)O)NC(=O)CNC1=O)C(=O)NC(C(C)O)C(=O)N1CCCC1C(=O)N1CC(N)CC1C(=O)NC(CC(=O)O)C(=O)N2 (stereo not drawn) [compound 63] |
| < 0.1 | CC(C)C[C@@H]1NC(=O)[C@H](Cc2cnc[nH]2)NC(=O)[C@H](Cc2c[nH]c3ccccc23)NC(=O)[C@H](C)NC(=O)[C@@H]2CC/C=C/C[C@H](NC(=O)[C@H](Cc3c[nH]c4ccccc34)NC(=O)[C@H](C(C)C)NC(=O)[C@H](CC(C)C)NC(=O)[C@H](CCC(=O)O)NC(=O)CNC1=O)C(=O)N[C@@H]([C@@H](C)O)C(=O)N1CCC[C@@H]1C(=O)N1CCC[C@H]1C(=O)N[C@@H](CC(=O)O)C(=O)N2 [compound 99] |
| < 0.1 | CC(C)CC1NC(=O)C(Cc2cnc[nH]2)NC(=O)C(Cc2c[nH]c3ccccc23)NC(=O)C(C)NC(=O)C2CSSCC(NC(=O)C(Cc3c[nH]c4ccccc34)NC(=O)C(C(C)C)NC(=O)C(CC(C)C)NC(=O)C(CCC(=O)N(C)C)NC(=O)CNC1=O)C(=O)NC(C(C)O)C(=O)N1CCCC1C(=O)N1CC(N)CC1C(=O)NC(CC(N)=O)C(=O)N2 (stereo not drawn) [compound 69] (cyclo(GE(NMe2)LVWCTP[ξPro(4-NH2)]NCAWHL); disulfide 6-11; configuration not given here) |
| < 0.1 | CC(C)CC1NC(=O)C(Cc2cnc[nH]2)NC(=O)C(Cc2c[nH]c3ccccc23)NC(=O)C(C)NC(=O)C2CSSCC(NC(=O)C(Cc3c[nH]c4ccccc34)NC(=O)C(C(C)C)NC(=O)C(CC(C)C)NC(=O)C(CCC(=O)O)NC(=O)CNC1=O)C(=O)NC(C(C)O)C(=O)N1CCCC1C(=O)N1CC(N)CC1C(=O)NC(CC(=O)O)C(=O)N2 (stereo not drawn) [compound 56] |
| < 0.1 | CC(C)CC1NC(=O)C(Cc2cnc[nH]2)NC(=O)C(Cc2c[nH]c3ccccc23)NC(=O)C(C)NC(=O)C2CSSCC(NC(=O)C(Cc3c[nH]c4ccccc34)NC(=O)C(C(C)C)NC(=O)C(CC(C)C)NC(=O)C(CCC(=O)O)NC(=O)CNC1=O)C(=O)NC(C(C)O)C(=O)N1CCCC1C(=O)N1CC(N)CC1C(=O)NC(CC(N)=O)C(=O)N2 (stereo not drawn) [compound 55] (cyclo(GELVWCTP[ξPro(4-NH2)]NCAWHL); disulfide 6-11; configuration not given here) |
